# Laboratory results as given in patent US6982286B2, “Carbocyclic hydrazino inhibitors of copper-containing amine oxidases” (Biotie Therapies Corp., priority 2001, dated 2006).
# Where a name gives a salt, the structure may show the parent alone.
# Tests used:
# [1] = molecular target: T1, Recombinant human VAP-1 SSAO (Homo sapiens, UniProt Q16853); experiment: In vitro inhibition of VAP-1 SSAO activity (coupled colourimetric method); format: biochemical; details: for Selectivity for VAP-1 SSAO over MAO: ratio of total rat MAO IC50 to human VAP-1 SSAO IC50; for IC50: recombinant human VAP-1 SSAO in CHO cell lysate, 1 mM benzylamine, pH 7.6, 37° C., read-out: VAP-1 SSAO inhibitory activity IC50
# T1 construct: expressed in transfected cells; host or cells: Chinese Hamster Ovary (CHO) cells; NP40 lysate supernatant used directly
# T1 sequence (Q16853 1-763): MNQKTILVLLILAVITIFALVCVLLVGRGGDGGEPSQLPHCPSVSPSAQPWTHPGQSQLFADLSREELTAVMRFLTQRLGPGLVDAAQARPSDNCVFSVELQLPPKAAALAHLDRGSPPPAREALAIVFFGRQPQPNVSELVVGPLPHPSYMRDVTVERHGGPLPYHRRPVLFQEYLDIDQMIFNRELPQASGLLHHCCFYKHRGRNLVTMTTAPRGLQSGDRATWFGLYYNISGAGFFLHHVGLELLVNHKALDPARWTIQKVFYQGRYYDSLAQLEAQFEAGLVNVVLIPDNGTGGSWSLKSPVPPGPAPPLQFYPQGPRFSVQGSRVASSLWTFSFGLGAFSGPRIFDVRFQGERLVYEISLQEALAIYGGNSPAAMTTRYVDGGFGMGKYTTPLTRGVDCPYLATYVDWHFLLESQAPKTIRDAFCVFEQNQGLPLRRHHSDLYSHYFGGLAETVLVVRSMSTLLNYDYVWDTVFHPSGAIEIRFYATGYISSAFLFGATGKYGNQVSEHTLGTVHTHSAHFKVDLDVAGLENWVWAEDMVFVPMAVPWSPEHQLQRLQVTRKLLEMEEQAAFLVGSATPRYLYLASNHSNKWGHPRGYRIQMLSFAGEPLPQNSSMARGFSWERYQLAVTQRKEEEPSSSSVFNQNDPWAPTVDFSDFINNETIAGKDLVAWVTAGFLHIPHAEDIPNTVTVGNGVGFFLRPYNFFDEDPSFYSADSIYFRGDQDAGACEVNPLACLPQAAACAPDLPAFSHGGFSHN
# Protocol: VAP-1 SSAO activity was measured using the coupled colourimetric method essentially as described for monoamine oxidase and related enzymes (Holt, A., et al., Anal. Biochem. 244:384-392 (1997)). Recombinant human VAP-1 SSAO expressed in Chinese Hamster Ovary (CHO) cells was used as a source of VAP-1 SSAO for activity measurements. Native CHO cells have negligible SSAO activity. These cells and their culture have previously been described (Smith, D. J., et al., J. Exp. Med. 188:17-27 (1998)). A cell lysate was prepared by suspending approximately 3.6×10^8 cells in 25 ml lysis buffer (150 mM NaCl, 10 mM Tris-Base pH 7.2, 1.5 mM MgCl2, 1% NP40) and incubating at 4° C. overnight on a rotating table. The lysate was clarified by centrifugation at 18000 g for 5 min at room temperature and the supernatant used directly in the assay. The VAP1 SSAO assay was performed in 96 well microtitre plates as follows. To each well was added a predetermined amount of inhibitor if required. The amount of inhibitor varied in each assay but was generally at a final concentration of between 1 nM and 50 μM. Controls lacked inhibitor. The inhibitor was in total volume of […] in water. The following reagents were then added. 0.2M potassium phosphate buffer pH 7.6 to a total reaction volume of 200 μl, 45 μl of freshly made chromogenic solution containing 1 mM 2,4-dichlorophenol, 500 μM 4-aminoantipyrine and 4 U/ml horseradish peroxidase and an amount of CHO cell lysate containing VAP-1 SSAO that caused a change of 0.6 A490 per h. This was within the linear response range of the assay. The plates were incubated for 30 min at 37° C. and the background absorbance measured at 490 nm using a Wallac Victor II multilabel counter. To initiate the enzyme reaction 20 μl 10 mM benzylamine (final concentration=1 mM) was added and the plate incubated for 1 h at 37° C. The increase in absorbance, reflecting VAP-1 SSAO activity, was measured at490 nm. Inhibition was presented as percent inhibition compared to control after correcting for background absorbance and IC50 values calculated using GraphPad Prism.
SMILES,Selectivity for VAP-1 SSAO over MAO ([1]; fumarate),IC50 [1],Selectivity for VAP-1 SSAO over MAO [1],Selectivity for VAP-1 SSAO over MAO ([1]; succinate),melting point
"CN(N)[C@@H]1Cc2ccccc2[C@H]1O [Compound 8, (1R,2R)-2-(1-methylhydrazino)-1-indanol fumarate]",21,560 nM,,,
"CO[C@H]1c2ccccc2C[C@@H]1N(C)N [Compound 19, (1S,2S)-2-(1-methylhydrazino)-1-methoxyindane Hydrogenmaleate]",,4320 nM,3,,
"CN(N)[C@@H]1Cc2ccccc2[C@H]1O [Compound 10, (1R,2R)-2-(1-methylhydrazino)-1-indanol succinate]",,660 nM,,23,
"CN(N)[C@@H]1Cc2ccccc2[C@H]1O (relative stereo) [Compound 4, (1R,*2R*)-2-(1-Methylhydrazino)-1-indanol hydrogenmaleate]",,660 nM,32,,
"CN(N)[C@@H]1Cc2ccccc2[C@H]1O [Compound 6, (1R,2R)-2-(1-methylhydrazino)-1-indanol hydrogenmaleate]",,650 nM,29,,
"CO[C@H]1c2ccccc2C[C@@H]1N(C)N (as salt: maleate) [Compound 19, (1S,2S)-2-(1-methylhydrazino)-1-methoxyindane Hydrogenmaleate]",,,,,113 to 115 °C
"CCN(N)[C@@H]1Cc2ccccc2[C@H]1O (racemic) [Compound 2, (1R*,2R*)-2-(1-Ethylhydrazino)-1-indanol hydrogenmaleate]",,5300 nM,4,,

# The next lines start with the values.
Selectivity for VAP-1 SSAO over MAO ([1]; fumarate),IC50 [1],Selectivity for VAP-1 SSAO over MAO [1],Selectivity for VAP-1 SSAO over MAO ([1]; succinate),melting point,SMILES
,660 nM,29,,,"CN(N)[C@H]1Cc2ccccc2[C@@H]1O [Compound 13, (1S,2S)2-(1-methylhydrazino)-1-indanol (R,R)-tartrate]"
,710 nM,31,,,"CN(N)[C@H]1Cc2ccccc2[C@@H]1O [Compound 11, (1S,2S)-2-(1-methylhydrazino)-1-indanol (S,S)-tartrate]"
,,,,104 to 106 °C,"CN(N)[C@@H]1Cc2ccccc2[C@H]1O (as salt: maleate) [Compound 6, (1R,2R)-2-(1-methylhydrazino)-1-indanol hydrogenmaleate]"
,620 nM,,26,,"CN(N)[C@H]1Cc2ccccc2[C@@H]1O [Compound 9, (1S,2S)-2-(1-methylhydrazino)-1-indanol succinate]"
28,470 nM,,,,"CN(N)[C@H]1Cc2ccccc2[C@@H]1O [Compound 7, (1S,2S)-2-(1-methylhydrazino)-1-indanol fumarate]"
,710 nM,28,,,"CN(N)[C@@H]1Cc2ccccc2[C@H]1O [Compound 14, (1R,2R)-2-(1-methylhydrazino)-1-indanol (R,R)-tartrate]"
,700 nM,31,,,"CN(N)[C@H]1Cc2ccccc2[C@@H]1O [Compound 1, (1S,2S)-2-(1-methylhydrazino)-1-indanol hydrogenmaleate]"
,660 nM,30,,,"CN(N)[C@@H]1Cc2ccccc2[C@H]1O [Compound 12, (1R,2R)-2-(1-methylhydrazino)-1-indanol (S,S)-tartrate]"
,,,,104 to 106 °C,"CN(N)[C@H]1Cc2ccccc2[C@@H]1O (as salt: maleate) [Compound 1, (1S,2S)-2-(1-methylhydrazino)-1-indanol hydrogenmaleate]"
